# Assay results as given in patent publication US11649248B2, “Oxadiazaspiro compounds for the treatment of drug abuse and addiction” (ESTEVE PHARMACEUTICALS, S.A., priority 2015, dated 2023).
# Biological target: human σ1 receptor (Homo sapiens (Human), UniProt Q99720)
# Assay: Human σ1 receptor radioligand assay
# Format: binding
# Conditions: transfected HEK-293 membranes, [3H](+)-pentazocine radioligand
# Procedure: Human σ1 Receptor Radioligand Assay
# The assay was carried out with 7 μg of membrane suspension, 5 nM of [^3H](+)-pentazocine in either absence or presence of either buffer or 10 μM Haloperidol for total and non-specific binding, respectively. Binding buffer contained Tris-HCl 50 mM at pH 8. Plates were incubated at 37° C. for 120 minutes. […] Filters were dried and counted at approximately 40% efficiency in a MicroBeta scintillation counter (Perkin-Elmer) using EcoScint liquid scintillation cocktail
# Chain of human σ1 receptor (Q99720 whole entry): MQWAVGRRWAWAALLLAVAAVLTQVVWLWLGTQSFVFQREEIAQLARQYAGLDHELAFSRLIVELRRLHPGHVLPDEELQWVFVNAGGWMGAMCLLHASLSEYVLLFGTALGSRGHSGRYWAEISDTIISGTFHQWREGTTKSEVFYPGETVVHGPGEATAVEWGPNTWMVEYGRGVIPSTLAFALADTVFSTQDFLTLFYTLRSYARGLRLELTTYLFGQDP
structure (smiles),measurement,value
"CCN1CC2(CCN(CCC(C)(C)C)CC2)O[C@@H](C)C1=O [Example 52, (S)-9-(3,3-dimethylbutyl)-4-ethyl-2-methyl-1-oxa-4,9-diazaspiro[5.5]undecan-3-one]",Ki,< 500 nM
